Results reported in patent publication US20100069460A1, “1-PHENYL 1-THIO-D-GLUCITOL DERIVATIVE” (TAISHO PHARMACEUTICAL CO., LTD., priority 2006, published 2010).

How the values were obtained:
db/db mice = assay: Confirmation test for hypoglycemic effect in db/db mice; type: in vivo; details: oral gavage, 1 mg/10 mL suspension at 10 mL/kg, decrease in blood glucose AUC (0 to 8 hours) relative to control group
Procedure: The laboratory animals used were db/db mice (CLEA Japan, Inc., male, 7 weeks of age). A test substance was suspended in a 0.5% aqueous carboxymethylcellulose (CMC) solution and adjusted to a concentration of 1 mg/10 mL. On the day of the test, the db/db mice were divided into groups of 6 animals each, such that differences in the mean values and variance of their blood glucose levels were minimized, according to the procedures for blood collection and blood glucose measurement described later. The mice were measured for their body weight. Then, the test substance suspension was administered by oral gavage using a probe for oral administration at a volume of 10 mL/kg. The control group received a 0.5% aqueous CMC solution alone. Blood was collected at 8 points in total: before administration of the test substance (0 hour) and 0.5, 1, 2, 4, 6, 8 and 24 hours after oral administration. The test was performed under ad libitum feeding and drinking conditions.
Blood was collected from the orbital venous sinus of each animal under ether anesthesia using a heparin-coated blood collection tube and measured for its blood glucose level with a Glucose CII-Test Wako (Wako Pure Chemical Industries, Ltd., Japan). To determine the intensity (%) of hypoglycemic effect, casual blood glucose levels measured between 0 and 8 hours in each test group were analyzed by the trapezoidal method to calculate the area under the blood glucose-time curve (AUC). The results are expressed as a decrease in AUC relative to that of the control group.

human SGLT2 = target: T1, human SGLT2 (Homo sapiens, UniProt P31639); assay: Inhibition test for sodium-dependent sugar uptake in CHO-k1 cells stably expressing human SGLT2; type: cell-based; details: 1 mM [14C]methyl α-D-glucopyranoside uptake, 37° C., 1 hour
T1 construct: expressed in transfected cells; vector pcDNA3.1+hygro (Invitrogen)
T1 sequence (P31639 1-672): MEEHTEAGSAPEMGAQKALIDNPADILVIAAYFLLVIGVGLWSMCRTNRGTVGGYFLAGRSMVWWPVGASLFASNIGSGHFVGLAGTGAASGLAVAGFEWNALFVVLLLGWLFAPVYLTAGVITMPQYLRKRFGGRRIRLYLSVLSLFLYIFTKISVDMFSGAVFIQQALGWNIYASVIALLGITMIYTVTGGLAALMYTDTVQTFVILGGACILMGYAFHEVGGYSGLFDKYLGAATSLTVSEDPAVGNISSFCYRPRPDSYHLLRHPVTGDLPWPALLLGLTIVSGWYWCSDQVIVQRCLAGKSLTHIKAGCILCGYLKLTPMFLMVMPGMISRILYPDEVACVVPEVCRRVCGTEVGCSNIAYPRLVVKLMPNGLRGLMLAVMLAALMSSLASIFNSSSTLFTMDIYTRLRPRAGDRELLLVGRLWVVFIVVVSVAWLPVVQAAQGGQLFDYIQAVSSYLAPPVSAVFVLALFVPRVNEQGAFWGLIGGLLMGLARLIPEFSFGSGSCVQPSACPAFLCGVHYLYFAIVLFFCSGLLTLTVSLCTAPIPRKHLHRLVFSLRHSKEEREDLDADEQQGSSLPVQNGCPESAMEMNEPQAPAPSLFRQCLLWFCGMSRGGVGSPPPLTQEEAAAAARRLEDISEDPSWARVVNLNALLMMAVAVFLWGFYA
Procedure: (§1) A human SGLT1 sequence (NM_000343) was reverse-transcribed and amplified from human small intestine mRNA, and then introduced into pCMV-tag5A (Stratagene). Likewise, a human SGLT2 sequence (NM_003041) was prepared from human kidney mRNA in the same manner and introduced into pcDNA3.1+hygro (Invitrogen). The individual cloned sequences were confirmed to be identical with the sequences reported.
(§2) The human SGLT1 and human SGLT2 expression vectors were each transfected into CHO-k1 cells using lipofectamine 2000 (Invitrogen). The cells were cultured in the presence of 500 μg/mL geneticin (SGLT1) or hygromycin B (SGLT2) to select resistant strains and specific activity of sugar uptake in the system shown below was used as an indicator to obtain SGLT-expressing cells.
(§3) The cells stably expressing human SGLT1 or human SGLT2 were used for an inhibition test of sodium-dependent sugar uptake activity.
(§4) The cells were incubated for 20 minutes in 1 mL pretreatment buffer (140 mM choline chloride, 2 mM KCl, 1 mM CaCl2, 1 mM MgCl2, 10 mM HEPES/5 mM Tris, pH 7.4). The pretreatment buffer was removed and replaced with 200 μL uptake buffer containing a test compound (methyl α-D-glucopyranoside (containing [^14C]methyl α-D-glucopyranoside) at 0.1 mM for SGLT1 inhibition and 1 mM for SGLT2 inhibition, 140 mM NaCl, 2 mM KCl, 1 mM CaCl2, 1 mM MgCl2, 10 mM HEPES/5 mM Tris, pH 7.4). Uptake reaction was performed at 37° C. for 30 minutes (SGLT1) or 1 hour (SGLT2). After the reaction, the cells were washed twice with 1 mL washing buffer (10 mM methyl α-D-glucopyranoside, 140 mM choline chloride, 2 mM KCl, 1 mM CaCl2, 1 mM MgCl2, 10 mM HEPES/5 mM Tris, pH 7.4), and then dissolved in a 0.2 M NaOH solution (400 μL). Aquazol 2 (Perkin Elmer) was added and mixed well with each sample, followed by measurement of radioactivity using a liquid scintillation counter (Beckman Coulter) to calculate the amount of sugar uptake. For the control group, uptake buffer containing no test compound was prepared. Moreover, another uptake buffer containing choline chloride instead of NaCl was also prepared for basal uptake.
(§5) Test compounds prepared at 6 appropriate concentrations were used to measure the amount of sugar uptake, and their concentrations required for 50% inhibition of the amount of sugar uptake were calculated as IC50 values, assuming that the amount of sugar uptake in the control group was set to 100%.

human SGLT1 = target: T2, human SGLT1 (Homo sapiens, UniProt P13866); assay: Inhibition test for sodium-dependent sugar uptake in CHO-k1 cells stably expressing human SGLT1; type: cell-based; details: 0.1 mM [14C]methyl α-D-glucopyranoside uptake, 37° C., 30 minutes
T2 construct: expressed in transfected cells; vector pCMV-tag5A (Stratagene)
T2 sequence (P13866 1-664): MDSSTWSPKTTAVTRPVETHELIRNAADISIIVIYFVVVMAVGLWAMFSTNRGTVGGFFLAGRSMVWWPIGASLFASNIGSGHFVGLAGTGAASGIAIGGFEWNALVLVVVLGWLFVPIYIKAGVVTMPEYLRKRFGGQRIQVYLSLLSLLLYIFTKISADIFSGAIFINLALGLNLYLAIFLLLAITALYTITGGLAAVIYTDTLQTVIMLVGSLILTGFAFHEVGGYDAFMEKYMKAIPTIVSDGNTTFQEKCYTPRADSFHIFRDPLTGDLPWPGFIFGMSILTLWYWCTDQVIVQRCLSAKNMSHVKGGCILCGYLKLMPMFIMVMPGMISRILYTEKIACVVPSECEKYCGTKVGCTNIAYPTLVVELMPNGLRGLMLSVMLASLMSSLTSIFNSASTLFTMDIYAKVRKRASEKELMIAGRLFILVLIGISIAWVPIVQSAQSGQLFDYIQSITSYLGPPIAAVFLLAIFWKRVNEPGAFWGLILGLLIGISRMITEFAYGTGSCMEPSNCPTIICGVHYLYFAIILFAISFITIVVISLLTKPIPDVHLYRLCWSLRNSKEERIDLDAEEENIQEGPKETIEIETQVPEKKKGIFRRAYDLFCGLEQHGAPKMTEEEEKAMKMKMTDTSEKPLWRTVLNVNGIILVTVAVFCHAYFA
Procedure: as §1, §2, §3, §4, §5

Compound	Intensity of hypoglycemic effect (db/db mice) [%]	IC50 (human SGLT2) [nM]	IC50 (human SGLT1) [nM]
CCOc1ccc(Cc2cc([C@@H]3S[C@H](CO)[C@@H](O)[C@H](O)[C@H]3O)c(O)cc2C)cc1 [Compound 98, reference compound]	35.0		
Cc1ccc(Cc2cc([C@@H]3S[C@H](CO)[C@@H](O)[C@H](O)[C@H]3O)c(O)cc2C)cc1 [Compound I, (1S)-1,5-anhydro-1-[4-methyl-5-(4-methylbenzyl)-2-hydroxyphenyl]-1-thio-D-glucitol]	48.5	20	17
CSc1ccc(Cc2cc([C@@H]3S[C@H](CO)[C@@H](O)[C@H](O)[C@H]3O)c(O)cc2C)cc1 [Compound IV, (1S)-1,5-anhydro-1-[2-hydroxy-4-methyl-5-[4-(methylsulfanyl)benzyl]phenyl]-1-thio-D-glucitol]		10	27
COc1ccc(Cc2cc([C@@H]3S[C@H](CO)[C@@H](O)[C@H](O)[C@H]3O)c(O)cc2C)cc1 [II, (1S)-1,5-anhydro-1-[5-(4-methoxybenzyl)-4-methyl-2-hydroxyphenyl]-1-thio-D-glucitol]	49.7	20	32
CCc1ccc(Cc2cc([C@@H]3S[C@H](CO)[C@@H](O)[C@H](O)[C@H]3O)c(O)cc2C)cc1 [III, (1 S)-1,5-anhydro-1-[5-(4-ethylbenzyl)-2-hydroxy-4-methylphenyl]-1-thio-D-glucitol]		12	32
Cc1ccc(Cc2cc([C@@H]3S[C@H](CO)[C@@H](O)[C@H](O)[C@H]3O)c(O)cc2Cl)cc1 [V, (1S)-1,5-anhydro-1-[4-chloro-2-hydroxy-5-(4-methylbenzyl)phenyl]-1-thio-D-glucitol]		11	19
CCc1ccc(Cc2cc([C@@H]3S[C@H](CO)[C@@H](O)[C@H](O)[C@H]3O)c(O)cc2Cl)cc1 [VI, (1S)-1,5-anhydro-1-[4-chloro-2-hydroxy-5-(4-ethylbenzyl)phenyl]-1-thio-D-glucitol]		8	29
COc1ccc(Cc2cc([C@@H]3S[C@H](CO)[C@@H](O)[C@H](O)[C@H]3O)c(O)cc2Cl)cc1 [VII, (1S)-1,5-anhydro-1-[4-chloro-2-hydroxy-5-(4-methoxybenzyl)phenyl]-1-thio-D-glucitol]		13	33
